The values below come from patent US10266544B2, “Aryl substituted aminomethyl spectinomycin analogs as antibacterial agents” (ST. JUDE CHILDREN'S RESEARCH HOSPITAL, INC., priority 2013, dated 2019).

Type in all cases: cell-based
Test [1] relates to acinetobacter baumannii (ATCC 19606). As to the kind of experiment: MIC determination, microbroth dilution. The conditions noted are these: ATCC19606. For orientation: Dilution methods test growth across graded concentrations, often in twofold steps.
Test [2] deals with Legionella pneumophila (ATCC 33153). As to the kind of experiment: microbe, parasite or virus in culture. As to conditions: ATCC33153, 72 h, read-out: Zone of inhibition L.p.
In test [3] the test system is Proteus mirabilis (ATCC 25933). As to the kind of experiment: MIC determination, microbroth dilution. As to conditions: ATCC25933.
Test [4] relates to Staphylococcus aureus (ATCC 29213). As to the kind of experiment: MIC determination, microbroth dilution. The conditions noted are these: ATCC29213; Staphylococcus aureus (ATCC 29213); read-out: MIC S.a.
Test [5] relates to Bacillus anthracis, Sterne 34F2. As to the kind of experiment: microbe, parasite or virus in culture. As to conditions: STERNE34F2, read-out: MIC B.a.
The test system of test [6] is M. tuberculosis clinical isolates. As to the kind of experiment: microbe, parasite or virus in culture. The conditions noted are these: Mycobacterium tuberculosis.
Test [7] deals with Pseudomonas aeruginosa (PA01). As to the kind of experiment: MIC determination, microbroth dilution.
The test system of test [8] is Klebsiella pneumoniae (ATCC 33495). As to the kind of experiment: MIC determination, microbroth dilution. The conditions noted are these: ATCC33495.
The subject of test [9] is Streptococcus pneumoniae (R6). As to the kind of experiment: MIC determination, microbroth dilution. As to conditions: Streptococcus pneumoniae (R6); read-out: MIC S. pn.
For test [10], the system named is Streptococcus pyogenes (ATCC 700294). As to the kind of experiment: MIC determination, microbroth dilution. As to conditions: ATCC700294; Streptococcus pyogenes (ATCC 700294); read-out: MIC S. py.
Test [11] deals with Stenotrophomonas maltophilia (ATCC 13637). As to the kind of experiment: MIC determination, microbroth dilution. As to conditions: ATCC13637; Stenotrophomonas maltophilia (ATCC 13637); read-out: MIC S.m.
The test system of a further test is Listeria monocytogenes. As to the kind of experiment: MIC determination (Table 6).
Test [12] deals with Neisseria meningitides (ATCC 13077). As to the kind of experiment: Disc diffusion assay. The conditions noted are these: ATCC13077, 4 μg per disc, read-out: Zone of inhibition N.m. In general terms: A growth-free zone around the sample is the usual read-out of agar diffusion tests.
The test system of a further test is Moraxella catarrhalis. As to the kind of experiment: MIC determination (Table 6).
The subject of test [13] is Escherichia coli (ATCC 700926). As to the kind of experiment: MIC determination, microbroth dilution. The conditions noted are these: ATCC700926; Escherichia coli (ATCC 700926); read-out: MIC E.c.
The test system of test [14] is Burkholderia cepacia (ATCC 25416). As to the kind of experiment: MIC determination, microbroth dilution. The conditions noted are these: Burkholderia cepacia.
Test [15] relates to MRSA, Staphylococcus aureus (NRS70). As to the kind of experiment: MIC determination, microbroth dilution. The conditions noted are these: Staphylococcus aureus (NRS70); read-out: MIC MRSA.
Test [16] deals with Proteus vulgaris (ATCC 33420). As to the kind of experiment: MIC determination, microbroth dilution. The conditions noted are these: ATCC33420.
The test system of test [17] is Neisseria gonorrhoeae (ATCC 49226). As to the kind of experiment: Disc diffusion assay. The conditions noted are these: ATCC49226, 4 μg per disc, read-out: Zone of inhibition N.g.
The test system of the next test is Bacillus anthracis. As to the kind of experiment: microbe, parasite or virus in culture. The conditions noted are these: read-out: MIC B.a.
The test system of test [18] is Haemophilus influenza (ATCC 49247). As to the kind of experiment: microbe, parasite or virus in culture. The conditions noted are these: ATCC49247; Haemophilus influenza; 4 μg per disc; range of at least two experiments; read-out: Zone of inhibition H.i.
The subject of test [19] is Bacillus subtilis (ATCC 23857). As to the kind of experiment: MIC determination, microbroth dilution. The conditions noted are these: ATCC23857; Bacillus subtilis (ATCC 23857); read-out: MIC B.s.
A further test has as its system E. coli K12 ΔtolC. As to the kind of experiment: microbe, parasite or virus in culture. As to conditions: Escherichia coli, read-out: MIC E.c. Δtolc.
The mark [20] stands for this setting: ATCC25416, read-out: MIC B.c., Burkholderia cepacia (ATCC 25416).
Setting [21] is: ATCC25416, read-out: MIC B.c., Burkholderia cepacia, Table 6.

Where a name gives a salt, the structure may show the parent alone. Read-outs that look alike come from different tables or passages of the source.

As to `CN[C@@H]1[C@H](O)[C@H](NC)[C@H]2O[C@]3(O)[C@H](O[C@@H]2[C@H]1O)O[C@H](C)C[C@@]3(O)CNCCN1CCOCC1` [compound 51, 3′-(R)-3′-[(2-morpholinoethyl)aminomethyl]dihydrospectinomycin tetrahydrochloride], the MIC in test [1] is more than 200 µg/mL; in test [3], 50 to 100 µg/mL; in [4], 100 to 200 µg/mL; in [5], 100 to 200 µg/mL; in test [6] (H37RV, read-out: MIC H37Rv), 25 µg/mL; in [6] (read-out: MIC TN022) it was 50 µg/mL. The MIC in test [6] (read-out: MIC TN026) was 100 µg/mL; in test [7], not below 200 µg/mL; in test [8], 100 to 200 µg/mL; in [9] it was 100 µg/mL; in test [10] it was 100 µg/mL; in test [11], 50 µg/mL. In addition, the MIC is 25 µg/mL against Listeria monocytogenes; 3.1 µg/mL against Moraxella catarrhalis; 50 µg/mL in test [13]; more than 200 µg/mL in [14] (setting [20]); more than 200 µg/mL in test [14] (setting [21]); more than 200 µg/mL in test [15]. The MIC in test [16] was not below 200 µg/mL; in the test with Bacillus anthracis, 100 to 200 µg/mL; in test [19], 50 to 100 µg/mL; in the test with E. coli K12 ΔtolC it was 25 to 50 µg/mL. The zone of inhibition – broadly, the extent of the growth-free halo in a diffusion test – at 4 µg/disc in [2] is 22 mm; in test [12] it was 6 mm; in test [17], 0 mm; in test [18], 6 mm.

On to `CN[C@@H]1[C@H](O)[C@H](NC)[C@H]2O[C@]3(O)[C@H](O[C@@H]2[C@H]1O)O[C@H](C)C[C@@]3(O)CNCCC1CCOCC1` [compound 52, 3′-(R)-3′-[(2-(tetrahydro-2H-pyran-4-yl)ethyl)aminomethyl]dihydrospectinomycin Trihydrochloride], for which the MIC in test [1] was more than 200 µg/mL; in test [3], 200 µg/mL; in test [4], 200 µg/mL; in test [5], 50 to 100 µg/mL; in test [6] (H37RV, read-out: MIC H37Rv) it was 3.1 µg/mL; in test [6] (read-out: MIC TN022), 6.3 µg/mL. Further, the MIC was 3.1 µg/mL in test [6] (read-out: MIC TN026); more than 200 µg/mL in test [7]; 100 µg/mL in test [8]; 25 to 50 µg/mL in test [9]; 100 µg/mL in test [10]; 12.5 to 25 µg/mL in test [11]. Also, the MIC against Listeria monocytogenes was 12.5 µg/mL; in the test on Moraxella catarrhalis, 3.1 µg/mL; in [13] it was 50 to 100 µg/mL; in test [14] (setting [20]), more than 200 µg/mL; in [14] (setting [21]), more than 200 µg/mL; in test [15] it was more than 200 µg/mL. The MIC was more than 200 µg/mL in test [16], 50 to 100 µg/mL in the test on Bacillus anthracis, 25 µg/mL in test [19] and 25 to 50 µg/mL in the test on E. coli K12 ΔtolC. For the same compound, the zone of inhibition at 4 µg/disc came to 32 mm in [2], 12 mm in test [12], 7 mm in test [17] and 10 mm in [18].

On to `CN[C@@H]1[C@H](O)[C@H](NC)[C@H]2O[C@]3(O)[C@H](O[C@@H]2[C@H]1O)O[C@H](C)C[C@@]3(O)CNCCc1ccc(C(F)(F)F)cc1` [compound 58, 3′-(R)-3′[(4-trifluoromethyl)phenethylaminomethyl]dihydrospectinomycin Trihydrochloride], for which the MIC is more than 200 µg/mL in test [1]; 200 µg/mL in test [3]; 12.5 µg/mL in test [4]; 12.5 to 25 µg/mL in test [5]; 3.1 µg/mL in test [6] (H37RV, read-out: MIC H37Rv); 3.1 µg/mL in test [6] (read-out: MIC TN022). Moreover, the MIC in test [6] (read-out: MIC TN026) was 6.3 µg/mL; in [7], more than 200 µg/mL; in test [8] it was more than 200 µg/mL; in test [9], 1.6 to 3.1 µg/mL; in test [10] it was 1.6 to 3.1 µg/mL; with Listeria monocytogenes, 3.1 µg/mL. Moreover, the MIC in the test on Moraxella catarrhalis is 0.4 µg/mL; in test [13], 6.3 to 12.5 µg/mL; in [14] (setting [20]), more than 200 µg/mL; in [14] (setting [21]), more than 200 µg/mL; in test [15], 50 to 100 µg/mL; in test [16], 200 µg/mL. Also, the values for the MIC (in the test with Bacillus anthracis; in test [19]; in the test on E. coli K12 ΔtolC) were 12.5 to 25 µg/mL, 6.3 µg/mL and 1.6 µg/mL, respectively. Besides, the zone of inhibition at 4 µg/disc in [2] turned out to be 26 mm; in test [12], 16 mm; in test [17], 19 mm; in test [18], 19 mm.

With `CN[C@@H]1[C@H](O)[C@H](NC)[C@H]2O[C@]3(O)[C@H](O[C@@H]2[C@H]1O)O[C@H](C)C[C@@]3(O)CNCCc1cccnc1` [compound 59, 3′-(R)-3′-[((2-(pyridin-3-yl)ethyl)aminomethyl]dihydrospectinomycintetrahydrobromide], the MIC in test [1] was more than 200 µg/mL; in test [4], 100 µg/mL; in test [5] it was 50 µg/mL; in [6] (H37RV, read-out: MIC H37Rv), 6.3 µg/mL; in test [6] (read-out: MIC TN022), 6.3 µg/mL; in [6] (read-out: MIC TN026), 6.3 µg/mL. Also, the MIC is 100 µg/mL in test [8]; 12.5 µg/mL against Listeria monocytogenes; 3.1 µg/mL against Moraxella catarrhalis; more than 200 µg/mL in [14] (setting [20]); more than 200 µg/mL in test [14] (setting [21]); more than 200 µg/mL in test [15]. For the same compound, the MIC in the test on Bacillus anthracis was 50 µg/mL; in [19], 12.5 to 25 µg/mL.

In the case of `CN[C@@H]1[C@H](O)[C@H](NC)[C@H]2O[C@]3(O)[C@H](O[C@@H]2[C@H]1O)O[C@H](C)C[C@@]3(O)CNCCc1cnccn1` [compound 60, 3′-(R)-3′-[((2-(pyrazin-2-yl)ethyl)aminomethyl]dihydrospectinomycintetrahydrobromide], the MIC was more than 200 µg/mL in [1]; more than 200 µg/mL in [3]; 200 µg/mL in test [4]; 100 µg/mL in test [5]; 3.1 µg/mL in test [6] (H37RV, read-out: MIC H37Rv); 6.3 µg/mL in test [6] (read-out: MIC TN022). Besides, the MIC in test [6] (read-out: MIC TN026) is 6.3 µg/mL; in [7] it was more than 200 µg/mL; in [8], 100 to 200 µg/mL; in [9], 25 µg/mL; in test [10] it was 50 µg/mL; in [11] it was 25 µg/mL. The MIC against Listeria monocytogenes is 25 µg/mL; against Moraxella catarrhalis it was 6.3 µg/mL; in [13] it was 100 µg/mL; in [14] (setting [20]) it was more than 200 µg/mL; in [14] (setting [21]), more than 200 µg/mL; in test [15] it was more than 200 µg/mL. The MIC is more than 200 µg/mL in [16], 100 µg/mL in the test with Bacillus anthracis, 50 to 100 µg/mL in test [19] and 50 µg/mL in the test with E. coli K12 ΔtolC.
